Measurements published in ChEMBL document CHEMBL5465560, “Selectivity Literature for EUbOPEN Chemogenomic Library” (2024).
Each block holds one compound with its values, some of them ahead of it.

What was measured:
[1] = target: LIM domain kinase 1 (Homo sapiens) (UniProt P53667); settings: at 10 µM
[2] = target: Ribosomal protein S6 kinase alpha-4 (Homo sapiens) (UniProt O75676); experiment: Selectivity interaction (Kinase panel (Invitrogen)) EUB0000639a RPS6KA4; settings: at 200 nM
[3] = target: T1, SNF-related serine/threonine-protein kinase (Homo sapiens) (UniProt Q9NRH2); experiment: Selectivity interaction (Kinase panel (KiNativ target engagement assay in Jurkat cells)) EUB0001635a SNRK; format: cell-based; settings: at 1 µM
T1 sequence (whole entry): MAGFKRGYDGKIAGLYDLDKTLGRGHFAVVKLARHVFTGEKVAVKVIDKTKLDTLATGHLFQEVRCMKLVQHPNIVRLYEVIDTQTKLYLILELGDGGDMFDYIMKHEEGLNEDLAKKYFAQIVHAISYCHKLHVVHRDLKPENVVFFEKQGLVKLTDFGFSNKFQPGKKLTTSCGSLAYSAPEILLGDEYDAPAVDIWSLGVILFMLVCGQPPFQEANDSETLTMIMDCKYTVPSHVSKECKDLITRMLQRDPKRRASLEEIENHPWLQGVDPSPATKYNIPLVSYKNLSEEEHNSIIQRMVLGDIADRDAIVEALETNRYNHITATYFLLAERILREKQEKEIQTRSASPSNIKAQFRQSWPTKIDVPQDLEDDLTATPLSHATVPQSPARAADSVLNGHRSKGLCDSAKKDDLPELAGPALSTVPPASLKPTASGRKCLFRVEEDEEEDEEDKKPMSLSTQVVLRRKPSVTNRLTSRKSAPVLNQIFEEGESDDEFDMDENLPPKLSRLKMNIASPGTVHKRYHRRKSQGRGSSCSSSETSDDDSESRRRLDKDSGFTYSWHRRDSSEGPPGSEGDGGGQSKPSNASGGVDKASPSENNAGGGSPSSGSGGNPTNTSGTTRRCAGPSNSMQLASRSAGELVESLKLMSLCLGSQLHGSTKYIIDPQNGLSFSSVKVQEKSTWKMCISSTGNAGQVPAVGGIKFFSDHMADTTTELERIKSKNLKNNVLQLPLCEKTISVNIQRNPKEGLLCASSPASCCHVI

[4] = target: Leukocyte tyrosine kinase receptor (Homo sapiens, UniProt P29376); experiment: Selectivity interaction (KinomeScan (DiscoverX)) EUB0000092b LTK; settings: at 10 µM
Chain of Leukocyte tyrosine kinase receptor (P29376 whole entry, the tested form may be a part): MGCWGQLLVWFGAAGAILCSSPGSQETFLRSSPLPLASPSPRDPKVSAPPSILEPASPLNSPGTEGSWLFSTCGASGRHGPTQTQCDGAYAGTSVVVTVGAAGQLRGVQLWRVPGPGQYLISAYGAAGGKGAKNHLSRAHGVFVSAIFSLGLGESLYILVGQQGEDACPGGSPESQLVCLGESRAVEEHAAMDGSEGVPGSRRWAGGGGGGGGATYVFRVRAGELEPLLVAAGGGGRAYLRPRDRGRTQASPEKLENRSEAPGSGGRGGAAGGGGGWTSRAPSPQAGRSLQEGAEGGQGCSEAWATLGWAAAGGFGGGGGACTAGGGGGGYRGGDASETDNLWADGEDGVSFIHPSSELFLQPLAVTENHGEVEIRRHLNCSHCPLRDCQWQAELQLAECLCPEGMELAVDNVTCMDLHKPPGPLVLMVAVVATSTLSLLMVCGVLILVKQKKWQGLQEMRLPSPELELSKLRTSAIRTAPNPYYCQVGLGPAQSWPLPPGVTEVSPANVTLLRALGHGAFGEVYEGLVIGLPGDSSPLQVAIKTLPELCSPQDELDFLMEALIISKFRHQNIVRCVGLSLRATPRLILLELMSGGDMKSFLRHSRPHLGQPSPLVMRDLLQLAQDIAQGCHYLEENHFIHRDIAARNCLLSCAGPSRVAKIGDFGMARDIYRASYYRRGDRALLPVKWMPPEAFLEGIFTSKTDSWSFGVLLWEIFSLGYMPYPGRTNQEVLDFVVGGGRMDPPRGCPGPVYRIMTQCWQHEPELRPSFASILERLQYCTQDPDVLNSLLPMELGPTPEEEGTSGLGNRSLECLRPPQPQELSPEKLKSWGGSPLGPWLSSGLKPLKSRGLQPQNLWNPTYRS

[5] = target: T2, Phosphatidylinositol 3-kinase C2 domain-containing subunit gamma (Homo sapiens) (UniProt O75747); experiment: Selectivity interaction (KinomeScan (DiscoverX)) EUB0000618a PIK3C2G; settings: at 10 µM
T2 sequence (whole entry): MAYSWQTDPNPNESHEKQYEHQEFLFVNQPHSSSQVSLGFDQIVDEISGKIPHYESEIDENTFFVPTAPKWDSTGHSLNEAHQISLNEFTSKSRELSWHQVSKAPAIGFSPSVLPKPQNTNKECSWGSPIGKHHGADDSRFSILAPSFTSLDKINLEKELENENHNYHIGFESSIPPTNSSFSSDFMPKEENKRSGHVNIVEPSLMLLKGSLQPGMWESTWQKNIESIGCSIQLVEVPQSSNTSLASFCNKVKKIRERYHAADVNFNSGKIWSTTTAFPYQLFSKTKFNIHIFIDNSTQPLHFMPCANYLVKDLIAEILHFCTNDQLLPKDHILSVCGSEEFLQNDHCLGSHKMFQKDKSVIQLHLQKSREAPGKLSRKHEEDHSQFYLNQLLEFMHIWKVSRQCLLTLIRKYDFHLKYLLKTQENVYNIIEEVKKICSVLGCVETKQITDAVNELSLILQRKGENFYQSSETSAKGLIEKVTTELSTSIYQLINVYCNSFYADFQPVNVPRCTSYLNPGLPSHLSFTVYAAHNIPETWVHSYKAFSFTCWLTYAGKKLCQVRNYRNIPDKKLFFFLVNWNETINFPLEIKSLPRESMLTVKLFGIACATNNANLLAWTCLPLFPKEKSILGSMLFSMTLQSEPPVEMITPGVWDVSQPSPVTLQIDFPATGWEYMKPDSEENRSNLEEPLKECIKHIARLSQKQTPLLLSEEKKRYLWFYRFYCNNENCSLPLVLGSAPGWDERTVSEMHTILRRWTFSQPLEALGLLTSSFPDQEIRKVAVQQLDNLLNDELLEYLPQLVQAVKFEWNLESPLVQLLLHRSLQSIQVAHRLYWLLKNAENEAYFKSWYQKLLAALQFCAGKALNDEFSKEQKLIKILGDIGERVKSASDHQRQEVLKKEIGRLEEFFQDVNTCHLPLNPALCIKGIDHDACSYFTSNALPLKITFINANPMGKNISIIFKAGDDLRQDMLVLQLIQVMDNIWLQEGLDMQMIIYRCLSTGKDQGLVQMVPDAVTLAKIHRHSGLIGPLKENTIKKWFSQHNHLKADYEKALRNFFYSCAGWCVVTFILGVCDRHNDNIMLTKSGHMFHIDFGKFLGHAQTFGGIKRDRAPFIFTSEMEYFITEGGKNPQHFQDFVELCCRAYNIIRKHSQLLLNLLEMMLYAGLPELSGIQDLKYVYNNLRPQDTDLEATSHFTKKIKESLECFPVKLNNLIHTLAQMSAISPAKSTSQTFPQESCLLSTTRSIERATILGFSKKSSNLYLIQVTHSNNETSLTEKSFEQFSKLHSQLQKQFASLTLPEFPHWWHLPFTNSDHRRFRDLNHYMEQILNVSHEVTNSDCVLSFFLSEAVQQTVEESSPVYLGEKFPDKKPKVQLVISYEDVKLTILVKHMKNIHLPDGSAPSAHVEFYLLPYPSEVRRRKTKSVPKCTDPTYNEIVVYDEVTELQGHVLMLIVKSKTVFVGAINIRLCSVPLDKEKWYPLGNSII

[6] = target: T3, Serine/threonine-protein kinase STK11 (Homo sapiens) (UniProt Q15831); experiment: Selectivity interaction (KinomeScan (DiscoverX)) EUB0001619a STK11; settings: at 1 µM
T3 sequence (whole entry): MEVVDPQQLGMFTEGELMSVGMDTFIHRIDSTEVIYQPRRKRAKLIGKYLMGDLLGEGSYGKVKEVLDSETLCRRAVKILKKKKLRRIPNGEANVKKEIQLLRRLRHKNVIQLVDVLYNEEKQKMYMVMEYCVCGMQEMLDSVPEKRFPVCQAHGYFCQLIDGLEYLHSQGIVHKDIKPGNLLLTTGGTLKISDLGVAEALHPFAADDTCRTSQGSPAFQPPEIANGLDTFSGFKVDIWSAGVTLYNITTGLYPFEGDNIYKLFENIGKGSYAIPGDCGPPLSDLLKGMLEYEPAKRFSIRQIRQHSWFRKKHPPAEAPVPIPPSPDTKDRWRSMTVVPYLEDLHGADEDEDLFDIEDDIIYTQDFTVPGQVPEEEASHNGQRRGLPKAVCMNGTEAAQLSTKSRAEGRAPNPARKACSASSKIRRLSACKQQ

Chain of LIM domain kinase 1 (Homo sapiens) (P53667 whole entry, looked up, the tested form may be a part): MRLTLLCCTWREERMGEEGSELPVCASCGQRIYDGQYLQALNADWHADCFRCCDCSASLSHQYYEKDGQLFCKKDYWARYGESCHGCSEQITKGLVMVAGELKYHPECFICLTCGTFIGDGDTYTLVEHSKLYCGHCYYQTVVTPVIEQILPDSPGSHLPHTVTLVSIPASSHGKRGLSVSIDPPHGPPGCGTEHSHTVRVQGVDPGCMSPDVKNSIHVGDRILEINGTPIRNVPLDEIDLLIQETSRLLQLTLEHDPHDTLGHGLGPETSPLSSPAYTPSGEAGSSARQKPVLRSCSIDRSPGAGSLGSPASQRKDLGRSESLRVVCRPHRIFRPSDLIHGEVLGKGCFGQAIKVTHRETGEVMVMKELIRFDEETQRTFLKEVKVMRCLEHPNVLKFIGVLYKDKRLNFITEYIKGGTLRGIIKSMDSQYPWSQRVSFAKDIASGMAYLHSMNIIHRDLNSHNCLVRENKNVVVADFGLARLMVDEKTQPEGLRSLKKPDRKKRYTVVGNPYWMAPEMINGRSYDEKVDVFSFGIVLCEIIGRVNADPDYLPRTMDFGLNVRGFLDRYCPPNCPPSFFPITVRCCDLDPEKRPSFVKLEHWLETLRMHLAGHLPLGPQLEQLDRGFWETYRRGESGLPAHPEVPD
Chain of Ribosomal protein S6 kinase alpha-4 (Homo sapiens) (O75676 whole entry, looked up): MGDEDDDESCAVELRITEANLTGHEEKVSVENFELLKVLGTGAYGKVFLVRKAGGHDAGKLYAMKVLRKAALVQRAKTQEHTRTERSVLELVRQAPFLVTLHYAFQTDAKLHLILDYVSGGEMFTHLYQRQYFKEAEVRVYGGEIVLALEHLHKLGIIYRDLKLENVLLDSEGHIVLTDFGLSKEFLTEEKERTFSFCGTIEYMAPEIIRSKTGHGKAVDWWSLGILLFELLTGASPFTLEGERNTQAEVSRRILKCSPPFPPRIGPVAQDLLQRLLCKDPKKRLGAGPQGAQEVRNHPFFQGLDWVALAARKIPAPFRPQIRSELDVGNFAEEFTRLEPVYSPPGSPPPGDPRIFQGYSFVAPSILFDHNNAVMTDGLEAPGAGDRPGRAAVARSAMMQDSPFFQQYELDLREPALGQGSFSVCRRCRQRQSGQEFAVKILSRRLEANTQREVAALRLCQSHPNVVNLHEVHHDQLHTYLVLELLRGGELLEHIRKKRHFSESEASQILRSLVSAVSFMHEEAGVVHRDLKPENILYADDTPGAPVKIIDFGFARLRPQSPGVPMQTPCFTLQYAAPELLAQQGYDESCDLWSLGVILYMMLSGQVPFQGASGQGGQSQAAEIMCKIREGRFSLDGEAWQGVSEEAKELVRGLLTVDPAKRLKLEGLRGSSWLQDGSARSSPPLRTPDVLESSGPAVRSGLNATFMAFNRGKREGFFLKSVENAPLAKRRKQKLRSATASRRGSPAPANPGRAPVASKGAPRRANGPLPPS

% of control [1]: 100%
Structure (SMILES): CCN(CC)CCCCNc1ncc2cc(-c3cc(OC)cc(OC)c3)c(NC(=O)NC(C)(C)C)nc2n1

% of inhibition [2]: 4.43%
Structure (SMILES): CC[C@@H]1[C@H](F)C(=O)N[C@@H]1COc1nccc2cc(C(N)=O)c(OC)cc12 [ZIMLOVISERTIB]

Structure (SMILES): C=CC(=O)Nc1ccc(C(=O)Nc2[nH]nc3c2CN(C(=O)N[C@H](CN(C)C)c2ccccc2)C3(C)C)cc1
% of engagement ([3]; Selectivity number of off-targets 0.0, Selectivity number of targets 233.0, Source Knowledge https://www.sciencedirect.com/science/article/pii/S2451945619300674?via%3Dihub): 6.9%
% of engagement [3]: 30.4%

Structure (SMILES): CCC(=O)N1CCN(c2ccc(-n3c(=O)ccc4cnc5ccc(-c6cnc7ccccc7c6)cc5c43)cc2C(F)(F)F)CC1
% of control [4]: 77%

Structure (SMILES): O[C@H]1CC[C@H](Nc2ncc3nc(Nc4c(F)cc(F)cc4F)n([C@H]4CCOC4)c3n2)CC1
% of control [5]: 93%

Structure (SMILES): N#Cc1cccc(-c2c[nH]c3ncnc(N4CCOCC4)c23)c1
% of control [6]: 100%
